Source: patent US10363257B2 (ZENITH EPIGENETICS LTD., priority 2013, dated 2019)

Tests used:
[1] = biological target: T1, Brd4 bromodomain 1 (BRD4(1)) (Homo sapiens, UniProt O60885); assay: Inhibition of tetra-acetylated histone H4 binding to Brd4 bromodomain 1 (TR-FRET); conditions: tetra-acetylated histone H4 peptide, first bromodomain of Brd4
T1 construct: made in house; host or cells: E. coli BL21(DE3)
Method in brief: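 His-tagged BRD4(1) from E. coli (200 nM) with biotinylated tetra-acetylated H4 peptide (25-50 nM), Eu-cryptate streptavidin and XL665 anti-His, in HEPES pH 7.4/phosphate/KF buffer, 0.2% DMSO. After 2 h at room temperature, TR-FRET 665/620 nm ratio read; IC50 from dose-response curves.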

human AML MV-4-11 cells = assay: Inhibition of cell proliferation in MV4-11 cells (CellTiter Aqueous One); assay type: cell-based; conditions: MV4-11, 72 h
Method in brief: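 Exponentially growing MV-4-11 cells (5×10^4/well) were treated immediately with two-fold dilutions of compound from 30 μM to 0.2 μM, in triplicate, for 72 h at 37° C, 5% CO2. Viability was measured by MTS absorbance at 490 nm after 3–4 h. Proliferation relative to DMSO after blank correction gave IC50.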

c-myc = assay: Inhibition of c-myc expression (mRNA, real-time PCR) in MV4-11 cells; assay type: cell-based; conditions: Human AML MV4-11 cells, 3 h, cMYC mRNA
Description: MV4-11 cells (CRL-9591) were plated at a density of 2.5×10^4 cells per well in 96 well U-bottom plates and treated with increasing concentrations of test compound or DMSO (0.1%) in IMDM media containing 10% FBS and penicillin/streptomycin, and incubated for 3 h at 37° C. Triplicate wells were used for each concentration. Cells were pelleted by centrifugation and harvested using the mRNA Catcher PLUS kit according to manufacturer's instructions. The eluted mRNA isolated was then used in a one-step quantitative real-time PCR reaction, using components of the RNA UltraSense™ One-Step Kit (Life Technologies) together with Applied Biosystems TaqMan® primer-probes for cMYC and Cyclophilin. Real-time PCR plates were run on a VIaTM7 real time PCR machine (Applied Biosystems), data was analyzed, normalizing the Ct values for cMYC to an internal control, prior to determining the fold expression of each sample, relative to the control.

Cc1noc(C)c1-c1cnc2nc(C)n(CC3CCCC3)c2c1 [compound 192, 4-(1-(cyclopentylmethyl)-2-methyl-1H-imidazo[4,5-b]pyridin-6-yl)-3,5-dimethylisoxazole]
IC50 [1]: ≤ 300 nM | IC50 (human AML MV-4-11 cells): 300 to 3000 nM | IC50 (c-myc): 300 to 3000 nM

CCNc1nc2c(N)cc(-c3c(C)noc3C)cc2n1C(C)c1ccccc1 (stereo not drawn) [compound 134, 6-(3,5-dimethylisoxazol-4-yl)-N2-ethyl-1-(1-phenylethyl)-1H-benzo[d]imidazole-2,4-diamine]
IC50 [1]: ≤ 300 nM | IC50 (human AML MV-4-11 cells): ≤ 300 nM | IC50 (c-myc): ≤ 300 nM

Cc1noc(C)c1-c1cnc2nc(N3CCCC3)n(Cc3ccccc3)c2c1 [compound 195, 4-(1-benzyl-2-(pyrrolidin-1-yl)-1H-imidazo[4,5-b]pyridin-6-yl)-3,5-dimethylisoxazole]
IC50 [1]: ≤ 300 nM | IC50 (human AML MV-4-11 cells): ≤ 300 nM | IC50 (c-myc): ≤ 300 nM

Cc1oncc1-c1cc(N)c2nc(C)n(Cc3ccccc3)c2c1 [compound 201, 1-benzyl-2-methyl-6-(5-methylisoxazol-4-yl)-1H-benzo[d]imidazol-4-amine]
IC50 [1]: ≤ 300 nM | IC50 (human AML MV-4-11 cells): 300 to 3000 nM | IC50 (c-myc): 300 to 3000 nM

Cc1noc(C)c1-c1cc(N)c2[nH]c(=S)n(Cc3ccccc3)c2c1 [compound 177, 4-amino-1-benzyl-6-(3,5-dimethylisoxazol-4-yl)-1H-benzo[d]imidazole-2(3H)-thione]
IC50 [1]: 300 to 3000 nM | IC50 (human AML MV-4-11 cells): ≤ 300 nM | IC50 (c-myc): ≤ 300 nM

Cc1noc(C)c1-c1cc([N+](=O)[O-])c2[nH]c(=O)n([C@@H](C)c3ccccc3)c2c1 [compound 172, (S)-6-(3,5-dimethylisoxazol-4-yl)-4-nitro-1-(1-phenylethyl)-1H-benzo[d]imidazol-2(3H)-one]
IC50 [1]: ≤ 300 nM | IC50 (human AML MV-4-11 cells): 300 to 3000 nM | IC50 (c-myc): ≤ 300 nM

Cc1noc(C)c1-c1cnc2nc(C3CC3)n(Cc3ccccc3)c2c1 [compound 138, 4-(1-benzyl-2-cyclopropyl-1H-imidazo[4,5-b]pyridin-6-yl)-3,5-dimethylisoxazole]
IC50 [1]: ≤ 300 nM | IC50 (human AML MV-4-11 cells): 300 to 3000 nM | IC50 (c-myc): ≤ 300 nM

Cc1noc(C)c1-c1cc([N+](=O)[O-])c2nc(C)n([C@@H](C)c3ccccc3)c2c1 [compound 125, (S)-3,5-dimethyl-4-(2-methyl-4-nitro-1-(1-phenylethyl)-1H-benzo[d]imidazol-6-yl)isoxazole]
IC50 [1]: ≤ 300 nM | IC50 (human AML MV-4-11 cells): 300 to 3000 nM | IC50 (c-myc): ≤ 300 nM

Cc1noc(C)c1-c1cnc2nc(C)n(CC3CCC3)c2c1 [compound 193, 4-(1-(cyclobutylmethyl)-2-methyl-1H-imidazo[4,5-b]pyridin-6-yl)-3,5-dimethylisoxazole]
IC50 [1]: ≤ 300 nM | IC50 (human AML MV-4-11 cells): 300 to 3000 nM | IC50 (c-myc): 300 to 3000 nM

Cc1noc(C)c1-c1cc(N2CC(O)C2)c2nc(C)n(Cc3ccccc3)c2c1 [compound 197, 1-(1-benzyl-6-(3,5-dimethylisoxazol-4-yl)-2-methyl-1H-benzo[d]imidazol-4-yl)azetidin-3-ol]
IC50 [1]: ≤ 300 nM | IC50 (human AML MV-4-11 cells): ≤ 300 nM | IC50 (c-myc): ≤ 300 nM
